Assay results published in patent publication US6043248A, “Alpha-substituted pyrimidine-thioalkyl and alkylether compounds as inhibitors of viral reverse transcriptase” (priority 1997, dated 2000).
pIC50: −log10 of the molar value. Like-named read-outs stand apart in the source and are kept apart here.

Biological target: T1, P236L viral reverse transcriptase (Human immunodeficiency virus type 1 group M subtype B, UniProt P04585, P823L)
T1 construct: P236L viral reverse transcriptase is obtained by PNAS 90: 4713-4717 (1993); made in house
Assay: inhibition of viral reverse transcriptase (P236L), cell free assay
Format: biochemical
Details: 30 minutes at 37° C.
From the text: The utility of the pyrimidine-thioalkyl and alkylether anti-AIDS compounds of Formula IA of this invention can be determined by their ability to inhibit viral reverse transcriptase, an enzyme essential for human immunodeficiency virus replication. This enzyme has characteristics which differentiate it from other known cellular polymerases and it is a unique enzyme which is not found in uninfected cells. Viral reverse transcriptase (Wild Type) is found in extracts from bacterial clones prepared according to the procedure described in AIDS Virus Reverse Transcriptase defined by high level expression in Escherichia coli, EMBO J. 6:3133-3137 (1987). P236L viral reverse transcriptase is obtained by PNAS 90: 4713-4717 (1993). Inhibition of this enzyme is determined in a cell free assay which measures the level of radioactive precursors incorporated into DNA. Extracts prepared according to the procedure of Science, 1125-1129 (1981) are incubated in a mixture of inhibitor, 20 mM dithiothreitol, 60 mM sodium chloride, 0.05% NP-40, 10 mM magnesium chloride, 50 mM Tris pH 8.3, 10 μM [^35 S]-labeled deoxynuleoside-5'-triphosphate, 10 μg/ml RNA template (poly rC or poly rG) and 5 μg/ml DNA primer (oligo dG or oligo dT) for 30 minutes at 37° C. Incorporation of radio-labeled percursor is determined by spotting aliquots of the reaction mixture on DE81 paper, washing the papers to remove unincorporated percursor, drying and determining counts. The results (IC50 means the concentration, in μM of drug, required to inhibit the reverse transcriptase activity (P236L and Wild Type) to the extent of 50%) of various assay(s) are combined and reported as % inhibition and/or IC50 (calculated) in Table I (P236L) and Table II (Wild Type).

[1] = read-out: IC50 (Table I, P236L)

| SMILES | pIC50 [1] | pIC50 (IC50 (Table I, P236L)) |
| --- | --- | --- |
| Cc1cc(CSc2nc(N)cc(Cl)n2)ncn1 [Example 130, 4-amino-6-chloro-2-[4-(6-methyl)pyrimidinylmethylthio]-pyrimidine] | 6.10 | – |
| Cc1ccc(CSc2nc(N)cc(Cl)n2)cc1 [Example 37, 4-amino-6-chloro-2-(4-methylphenylmethylthio)-pyrimidine] | 6.48 | – |
| COC(=O)c1cccc(CSc2nc(N)cc(Cl)n2)c1 [Example 46, 4-amino-6-chloro-2-(3-carbomethoxyphenylmethylthio)-pyrimidine] | 7.00 | – |
| Cc1cc(Cl)nc(CSc2nc(N)cc(Cl)n2)c1 [Example 125, 4-amino-6-chloro-2-[2-(6-chloro-4-methyl)pyridylmethylthio]-pyrimidine] | 7.30 | – |
| Cn1ccnc1CSc1nc(N)cc(Cl)n1 [Example 176, 4-Amino-6-chloro-2-[(1-methylimidazol-2-ylmethyl)thio]pyrimidine] | 4.60 | – |
| C=C(C)[C@@H]1CC=C(CSc2nc(N)cc(Cl)n2)CC1 [Example 157, 4-Amino-6-chloro-2-[((S)-(--)perillyl)thio]pyrimidine] | 5.00 | – |
| Nc1cc(Cl)nc(SCC2=Cc3ccccc3CC2)n1 [Example 171, 4-Amino-6-chloro-2-[[(3,4-dihydro-1-naphthalen-2-yl)methyl]thio]-pyrimidine] | 6.00 | – |
| Nc1cc(Cl)nc(SCc2cc(Cl)cc(Cl)c2)n1 [Example 50, 4-amino-6-chloro-2-(3,5-dichlorophenylmethylthio)-pyrimidine] | 6.48 | – |
| CCC(CC)c1ccnc(CSc2nc(N)cc(Cl)n2)c1 [Example 151, 4-amino-6-chloro-2-[2-(4-(3-pentyl))pyridylmethylthio]-pyrimidine] | 7.22 | – |
| CCc1ccnc(CSc2nc(N)cc(Cl)n2)c1 [Example 122, 4-amino-6-chloro-2-[2-(4-ethyl)pyridylmethylthio]-pyrimidine] | 8.00 | – |
| CC(C)(O)c1ccnc(CSc2nc(N)cc(Cl)n2)c1 [Example 135] | 7.00 | – |
| Cc1cnc(CSc2nc(N)cc(Cl)n2)cn1 [Example 175, 4-Amino-6-chloro-2-[(5-methylpyrazin-2-ylmethyl)thio]pyrimidine] | 5.10 | – |
| CCc1ccc(CSc2nc(N)cc(Cl)n2)nc1 [Example 134, 4-amino-6-chloro-2-[2-(4-ethyl)pyridylmethylthio]-pyrimidine] | 7.30 | – |
| Nc1cc(Cl)nc(SCc2cccc(Br)c2)n1 [Example 43, 4-amino-6-chloro-2-(3-bromophenylmethylthio)-pyrimidine] | 6.85 | – |
| Cc1cnc(CSc2nc(N)cc(Cl)n2)cc1C [Example 140, 4-amino-6-chloro-2-[2-(4,5-dimethyl)pyridylmethylthio]-pyrimidine] | 7.70 | – |
| Clc1cc(N2CCOCC2)nc(SCc2ccccc2)n1 [Example 86, 4-morpholino-6-chloro-2-(benzylthio)-pyrimidine] | 4.40 | – |
| CC(C)c1ccnc(CSc2nc(N)cc(Cl)n2)c1 [Example 132, 4-amino-6-chloro-2-[2-(4-isopropyl)pyridylmethylthio]-pyrimidine] | 7.70 | – |
| COC(=O)c1ccc(CSc2nc(N)cc(Cl)n2)nc1 [Example 188, 4-amino-6-chloro-2[2-(5-carbomethyoxy)pyridylmethylthio]pyrimidine] | – | 4.30 |
| Nc1cc(Cl)nc(SCc2cc3ccccc3cn2)n1 [Example 182, 4-Amino-6-chloro-2-[(isoquinolin-3-ylmethyl)thio]pyrimidine] | 7.70 | – |
| CC(C)Oc1ccnc(CSc2nc(N)cc(Cl)n2)c1 [Example 126, 4-amino-6-chloro-2-[2-(4-isopropoxy)pyridylmethylthio]-pyrimidine] | 7.30 | – |
| CC(C)(C)c1ccc(CSc2nc(N)cc(Cl)n2)cc1 [Example 47, 4-amino-6-chloro-2-(4-t-butylphenylmethylthio)-pyrimidine] | 6.00 | – |
| Nc1cc(Cl)nc(SCc2ccccn2)n1 [Example 55, 4-amino-6-chloro-2-(2-pyridylmethylthio)-pyrimidine] | 8.70 | – |
| N#Cc1ccnc(CSc2nc(N)cc(Cl)n2)c1 [Example 128, 4-amino-6-chloro-2-[2-(4-cyano)pyridylmethylthio]-pyrimidine] | 6.00 | – |
| COC(=O)c1ccnc(CSc2nc(N)cc(Cl)n2)c1 [Example 156, 4-amino-6-chloro-2-[2-(4-carbomethoxy)pyridylmethylthio]-pyrimidine] | 7.00 | – |

| SMILES | pIC50 [1] | pIC50 (IC50 (Table I, P236L)) |
| --- | --- | --- |
| Nc1cc(Cl)nc(SCc2cc(CO)ccn2)n1 [Example 164, 4-amino-6-chloro-2-[2-(4-hydroxymethyl)-pyridylmethylthio]-pyrimidine] | 6.00 | – |
| COc1c(N)nc(SCc2ccc3ccccc3c2)nc1Cl [Example 89, 4-amino-5-methoxy-6-chloro-2-(2-naphthylmethylthio)-pyrimidine] | 5.30 | – |
| Cc1cccc(CSc2nc(N)cc(Cl)n2)n1 [Example 113, 4-amino-6-chloro-2-[2-(6-methyl)pyridylmethylthio]-pyrimidine] | 7.05 | – |
| NNc1cc(Cl)nc(SCc2ccccc2)n1 [Example 88, 4-hydrazino-6-chloro-2-(benzylthio)-pyrimidine] | 5.30 | – |
| CCCNc1cc(Cl)nc(SCc2ccccc2)n1 [Example 87, 4-propylamino-6-chloro-2-(benzylthio)-pyrimidine] | 4.00 | – |
| Nc1cc(Cl)nc(SCc2ccc3ccccc3c2)n1 [Example 59, 4-amino-6-chloro-2-(2-naphthylmethylthio)-pyrimidine] | 7.44 | – |
| CCCc1ccnc(CSc2nc(N)cc(Cl)n2)c1 [Example 131, 4-amino-6-chloro-2-[2-(4-propyl)pyridylmethylthio]-pyrimidine] | 7.30 | – |
| Cc1cc(C)nc(CSc2nc(N)cc(Cl)n2)n1 [Example 127, 4-amino-6-chloro-2-[2-(4,6-dimethyl)pyrimidinylmethylthio]-pyrimidine] | 6.00 | – |
| Nc1nc(SCc2ccccn2)nc(Cl)c1F [Example 92, 4-amino-5-fluoro-6-chloro-2-(2-pyridylmethylthio)-pyrimidine] | 6.00 | – |
| Nc1cc(Cl)nc(SCc2ccc3cccnc3c2)n1 [Example 184, 4-Amino-6-chloro-2-[(quinolin-7-ylmethyl)thio]pyrimidine] | 5.52 | – |
| Cc1ccnc(CSc2nc(N)c(Br)c(Cl)n2)c1 [Example 165, 4-amino-5-bromo-6-chloro-2-[2-(4-methyl)pyridylmethylthio]-pyrimidine] | 7.30 | – |
| Cc1ccccc1CSc1nc(N)cc(Cl)n1 [Example 35, 4-amino-6-chloro-2-(2-methylphenylmethylthio)-pyrimidine] | 6.52 | – |
| COc1ccnc(CSc2nc(N)cc(Cl)n2)c1 [Example 123, 4-amino-6-chloro-2-[2-(4-methoxy)pyridylmethylthio]-pyrimidine] | 7.30 | – |
| Nc1cc(Cl)nc(SCc2cccc(Cl)c2)n1 [Example 42, 4-amino-6-chloro-2-(3-chlorophenylmethylthio)-pyrimidine] | 6.30 | – |
| Cc1cc(C)nc(CSc2nc(N)cc(Cl)n2)c1 [Example 121, 4-amino-6-chloro-2-[2-(4,6-dimethyl)pyridylmethylthio]-pyrimidine] | 8.00 | – |
| Nc1cc(Cl)nc(SCc2cc3ccccc3s2)n1 [Example 158, 4-Amino-6-chloro-2-[(benzothiophen-2-ylmethyl)thio]pyrimidine] | 6.00 | – |
| Nc1cc(Cl)nc(SCc2ccc3c(c2)OCO3)n1 [Example 186, 4-Amino-6-chloro-2-[(piperon-5-ylmethyl)thio]pyrimidine] | 6.30 | – |
| Nc1cc(Cl)nc(SCc2ccc3ccccc3n2)n1 [Example 61, 4-amino-6-chloro-2-(2-quinolinylmethylthio)-pyrimidine] | 5.30 | – |
| Cc1cc(CSc2nc(N)cc(Cl)n2)nc(C)n1 [Example 142, 4-amino-6-chloro-2-[4-(2,6-dimethyl)pyrimidinylmethylthio]-pyrimidine] | 6.30 | – |
| Nc1cc(Cl)nc(SCc2ccnc3ccccc23)n1 [Example 181, 4-Amino-6-chloro-2-[(quinolin-4-ylmethyl)thio]pyrimidine] | 6.00 | – |
| Nc1cc(Cl)nc(SCc2nc3ccccc3s2)n1 [Example 99, 4-amino-6-chloro-2-(2-benzothiazolomethylthio)-pyrimidine] | – | 6.30 |
| Nc1cc(Cl)nc(SCc2ccc(Cl)c(Cl)c2)n1 [Example 49, 4-amino-6-chloro-2-(3,4-dichlorophenylmethylthio)-pyrimidine] | 7.22 | – |
| Nc1cc(Cl)nc(SCc2c(F)cccc2F)n1 [Example 34, 4-amino-6-chloro-2-(2,6-difluorophenylmethylthio)-pyrimidine] | 5.00 | – |
| Cc1ccc(CSc2nc(N)cc(Cl)n2)nc1 [Example 118, 4-amino-6-chloro-2-[2-(5-methyl)pyridylmethylthio]-pyrimidine] | 7.15 | – |
